Source: US20220289794A1, “SYNTHETIC ANTIMICROBIAL PEPTIDES” (priority 2019, published 2022)
In brackets after ≈: the same amount, converted by molar mass. Positions of bridges follow the written chain, without caps; N, C: chain ends. Residues, ends and D or L forms follow the SMILES beside them.

Experiments:
[1] = test system: Escherichia coli (ATCC 25922); assay type: cell-based
Procedure: (§1) All bacteria pathogens tested clinically reported multi-drug resistant strains. The antibacterial activity was tested against Gram-negative strains namely; Pseudomonas aeruginosa (PSA), Klebsiella pneumoniae (KPC), Escherichia coli (E. coli) and Gram-positive Methicillin-resistant Staphylococcus aureus (MRSA). The minimum inhibitory concentration (MIC) is the lowest concentration of the antibiotic that inhibits microbial growths. MIC is determined by visual inspection or use of spectrophotometer plate reader to determine media turbidity. On the other hand, the minimum bactericidal concentration (MBC) is the lowest concentration that kills […] of bacterial growth. Cytotoxicity of peptides in the hepatic cell line, human skin fibroblast cell line, heart/myocardium cells, and human lung fibroblast cells is shown in FIGS. 36-46). […] (IFX-315)-Au-NP with antibiotics are shown in FIGS. 49-58 when the gold nanoparticles are formed by the peptide followed by addition of the antibiotic. […] (IFX-301) with antibiotics (1:1 ratio) first and then used in the synthesis of Au-NP in antibacterial activities is shown in FIGS. 59-68.
(§2) The MBC is identified by determining the lowest concentration of antibacterial agent that reduces the viability (concentration of peptides necessary to achieve a bactericidal effect) of the initial bacterial inoculum by ≥99.9%.

[2] = test system: Klebsiella pneumoniae (ATCC BAA-1705); assay type: cell-based
Procedure: as §1, §2

[3] = test system: Methicillin-resistant Staphylococcus aureus MRSA (ATCC BAA-1556); assay type: cell-based
Procedure: as §1, §2

[4] = test system: Pseudomonas aeruginosa (ATCC 27883); assay type: cell-based; settings: ATCC 27883
Procedure: as §1, §2

[5] = test system: Methicillin-resistant Staphylococcus aureus MRSA (ATCC BAA-1556); settings: ATCC BAA-1556
[6] = test system: Pseudomonas aeruginosa (ATCC 27883); settings: ATCC 27883
[7] = test system: Escherichia coli (ATCC 25922); settings: ATCC 25922
[8] = test system: Klebsiella pneumoniae (ATCC BAA-1705); settings: ATCC BAA-1705
[9] = test system: Pseudomonas aeruginosa (ATCC 10145); settings: ATCC 10145
[10] = assay type: cell-based; settings: Escherichia coli (ATCC 25922)

N=C(N)NCCC[C@H](NC(=O)[C@H](CCCNC(=N)N)NC(=O)[C@H](CCCNC(=N)N)NC(=O)[C@H](CCCNC(=N)N)NC(=O)[C@@H](N)CS)C(=O)N[C@@H](Cc1c[nH]c2ccccc12)C(=O)N[C@@H](Cc1c[nH]c2ccccc12)C(=O)N[C@@H](Cc1c[nH]c2ccccc12)C(=O)N[C@@H](Cc1c[nH]c2ccccc12)C(=O)N[C@@H](CS)C(=O)O [IFX-328] (H-CRRRRWWWWC-OH)
E. coli (ATCC 25922) MBC [1]: 512 µg/mL
KPC (ATCC BAA-1705) MBC [2]: 32 µg/mL
MRSA (ATCC BAA-1556) MBC [3]: 128 µg/mL
PSA (ATCC 27883) MBC [4]: 512 µg/mL
MRSA (ATCC BAA-1556) MIC [5]: 64 µg/mL
PSA (ATCC 27883 MIC) [6]: 512 µg/mL
E. coli (ATCC 25922) MIC [7]: 256 µg/mL
KPC (ATCC BAA-1705) MIC [8]: 16 µg/mL

N=C(N)NCCC[C@@H]1NC(=O)[C@H](CCCNC(=N)N)NC(=O)[C@H](CCCNC(=N)N)NC(=O)[C@H](CCCNC(=N)N)NC(=O)[C@H](Cc2c[nH]c3ccccc23)NC(=O)[C@H](Cc2c[nH]c3ccccc23)NC(=O)[C@H](Cc2c[nH]c3ccccc23)NC(=O)[C@H](Cc2c[nH]c3ccccc23)NC(=O)[C@H](CCCNC(=N)N)NC(=O)[C@H](CCCNC(=N)N)NC1=O [[R6W4] IFX-301] (cyclo(RRRRRRWWWW))
MIC (KPC): 64 µg/mL (≈ 38.1 µM)
MIC (PSA): 16 µg/mL (≈ 9.51 µM)
MIC (E. coli): 32 µg/mL (≈ 19 µM)
MIC [9]: 32 µg/mL (≈ 19 µM)

Polymyxin B
MIC, MgCl2 ([10]; MH broth + 1 mM MgCl2): 1.5 µg/mL
MIC, CaCl2 ([10]; MH broth + 2 mM CaCl2): 0.7 µg/mL
MIC, NH4Cl ([10]; MH broth + 6 mM NH4Cl): 0.7 µg/mL
MIC, NaCl ([10]; MH broth + 150 mM NaCl): 0.7 µg/mL
MIC, FBS ([10]; MH broth + FBS (25%)): 0.7 µg/mL
MIC, KCl ([10]; MH broth + […] KCl): 0.7 µg/mL
MIC, MH Media ([10]; MH broth, no supplement): 0.7 µg/mL

N=C(N)NCCC[C@@H]1NC(=O)[C@H](CCCNC(=N)N)NC(=O)[C@H](CCCNC(=N)N)NC(=O)[C@H](CCCNC(=N)N)NC(=O)[C@@H](N)CSSC[C@@H](C(=O)O)NC(=O)[C@H](Cc2c[nH]c3ccccc23)NC(=O)[C@H](Cc2c[nH]c3ccccc23)NC(=O)[C@H](Cc2c[nH]c3ccccc23)NC(=O)[C@H](Cc2c[nH]c3ccccc23)NC1=O [IFX-327] (H-CRRRRWWWWC-OH; disulfide 1-10)
E. coli (ATCC 25922) MBC [1]: 512 µg/mL
KPC (ATCC BAA-1705) MBC [2]: 512 µg/mL
MRSA (ATCC BAA-1556) MBC [3]: 64 µg/mL
PSA (ATCC 27883) MBC [4]: 512 µg/mL
MRSA (ATCC BAA-1556) MIC [5]: 32 µg/mL
PSA (ATCC 27883 MIC) [6]: 512 µg/mL
E. coli (ATCC 25922) MIC [7]: 256 µg/mL
KPC (ATCC BAA-1705) MIC [8]: 256 µg/mL

N=C(N)NCCC[C@H](NC(=O)[C@H](CCCNC(=N)N)NC(=O)[C@H](CCCNC(=N)N)NC(=O)[C@@H](N)CCCNC(=N)N)C(=O)N[C@H]1CSSC[C@@H](C(=O)O)NC(=O)[C@H](Cc2c[nH]c3ccccc23)NC(=O)[C@H](Cc2c[nH]c3ccccc23)NC(=O)[C@H](Cc2c[nH]c3ccccc23)NC(=O)[C@H](Cc2c[nH]c3ccccc23)NC1=O [IFX-333] (H-RRRRCWWWWC-OH; disulfide 5-10)
E. coli (ATCC 25922) MBC [1]: 32 µg/mL
KPC (ATCC BAA-1705) MBC [2]: 64 µg/mL
MRSA (ATCC BAA-1556) MBC [3]: 32 µg/mL
PSA (ATCC 27883) MBC [4]: 128 µg/mL
MRSA (ATCC BAA-1556) MIC [5]: 16 µg/mL
PSA (ATCC 27883 MIC) [6]: 128 µg/mL
E. coli (ATCC 25922) MIC [7]: 16 µg/mL
KPC (ATCC BAA-1705) MIC [8]: 32 µg/mL

N=C(N)NCCC[C@@H]1NC(=O)[C@H](CS)NC(=O)[C@H](Cc2c[nH]c3ccccc23)NC(=O)[C@H](Cc2c[nH]c3ccccc23)NC(=O)[C@H](Cc2c[nH]c3ccccc23)NC(=O)[C@H](Cc2c[nH]c3ccccc23)NC(=O)[C@H](CS)NC(=O)[C@H](CCCNC(=N)N)NC(=O)[C@H](CCCNC(=N)N)NC(=O)[C@H](CCCNC(=N)N)NC1=O [IFX-329] (cyclo(RRRCWWWWCR))
E. coli (ATCC 25922) MBC [1]: 64 µg/mL
KPC (ATCC BAA-1705) MBC [2]: 32 µg/mL
MRSA (ATCC BAA-1556) MBC [3]: 32 µg/mL
PSA (ATCC 27883) MBC [4]: 128 µg/mL
MRSA (ATCC BAA-1556) MIC [5]: 8 µg/mL
PSA (ATCC 27883 MIC) [6]: 128 µg/mL
E. coli (ATCC 25922) MIC [7]: 32 µg/mL
KPC (ATCC BAA-1705) MIC [8]: 32 µg/mL

N=C(N)NCCC[C@@H]1NC(=O)[C@H](CCCNC(=N)N)NC(=O)[C@H](CCCNC(=N)N)NC(=O)[C@@H]2CSSC[C@H](NC(=O)[C@H](CCCNC(=N)N)NC1=O)C(=O)N[C@@H](Cc1c[nH]c3ccccc13)C(=O)N[C@@H](Cc1c[nH]c3ccccc13)C(=O)N[C@@H](Cc1c[nH]c3ccccc13)C(=O)N[C@@H](Cc1c[nH]c3ccccc13)C(=O)N2 [IFX-330] (cyclo(RRRCWWWWCR); disulfide 4-9)
E. coli (ATCC 25922) MBC [1]: 64 µg/mL
KPC (ATCC BAA-1705) MBC [2]: 128 µg/mL
MRSA (ATCC BAA-1556) MBC [3]: 32 µg/mL
PSA (ATCC 27883) MBC [4]: 256 µg/mL
MRSA (ATCC BAA-1556) MIC [5]: 8 µg/mL
PSA (ATCC 27883 MIC) [6]: 128 µg/mL
E. coli (ATCC 25922) MIC [7]: 32 µg/mL
KPC (ATCC BAA-1705) MIC [8]: 32 µg/mL

N=C(N)NCCC[C@H](NC(=O)[C@H](CCCNC(=N)N)NC(=O)[C@H](CCCNC(=N)N)NC(=O)[C@@H](N)CCCNC(=N)N)C(=O)N[C@@H](CS)C(=O)N[C@@H](Cc1c[nH]c2ccccc12)C(=O)N[C@@H](Cc1c[nH]c2ccccc12)C(=O)N[C@@H](Cc1c[nH]c2ccccc12)C(=O)N[C@@H](Cc1c[nH]c2ccccc12)C(=O)N[C@@H](CS)C(=O)O [IFX-331] (H-RRRRCWWWWC-OH)
E. coli (ATCC 25922) MBC [1]: 32 µg/mL
KPC (ATCC BAA-1705) MBC [2]: 128 µg/mL
MRSA (ATCC BAA-1556) MBC [3]: 32 µg/mL
PSA (ATCC 27883) MBC [4]: 265 µg/mL
MRSA (ATCC BAA-1556) MIC [5]: 16 µg/mL
PSA (ATCC 27883 MIC) [6]: 128 µg/mL
E. coli (ATCC 25922) MIC [7]: 32 µg/mL
KPC (ATCC BAA-1705) MIC [8]: 64 µg/mL
